# Assay results as given in PubChem BioAssay AID330 (DTP/NCI, 2004).
# Several values for one entry are separate records, joined by “and”; a condition that tells them apart may be missing. Equal values may be shown once. Inconclusive results and toxic doses are left out.
# System: P388 leukemia ip, CD2F1 mice, survival T/C
# Assay: NCI In Vivo Anticancer Drug Screen. Data for tumor model P388 Leukemia (intraperitoneal) in CD2F1 (CDF1) mice
# Conditions: endpoint: median survival time, higher = longer survival
# In short: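 Mice carrying the transplanted tumor received test compound or vehicle. Survival was recorded in each group, and the value is the treated-group measurement divided by that of the vehicle-treated control group.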
# [1] = dose: 60.0 mg/kg/injection, schedule: Q01DX005 (ip), vehicle: saline with Tween-80
# [2] = dose: 120.0 mg/kg/injection, schedule: Q01DX005 (ip), vehicle: saline with Tween-80
# [3] = dose: 50.0 mg/kg/injection, schedule: Q01DX009 (ip), vehicle: saline
# [4] = dose: 100.0 mg/kg/injection, schedule: Q01DX009 (ip), vehicle: saline
# [5] = dose: 200.0 mg/kg/injection, schedule: Q01DX009 (ip), vehicle: saline
# [6] = dose: 50.0 mg/kg/injection, schedule: Q01DX009 (ip), vehicle: Klucel (hydroxypropylcellulose) (HPC)
# [7] = dose: 100.0 mg/kg/injection, schedule: Q01DX009 (ip), vehicle: Klucel (hydroxypropylcellulose) (HPC)
# [8] = dose: 200.0 mg/kg/injection, schedule: Q01DX009 (ip), vehicle: Klucel (hydroxypropylcellulose) (HPC)
# [9] = dose: 50.0 mg/kg/injection, schedule: Q01DX009 (ip), vehicle: saline with Tween-80
# [10] = dose: 50.0 mg/kg/injection, schedule: Q01DX005 (ip), vehicle: saline with Tween-80
# [11] = dose: 100.0 mg/kg/injection, schedule: Q01DX005 (ip), vehicle: saline with Tween-80
# [12] = dose: 200.0 mg/kg/injection, schedule: Q01DX005 (ip), vehicle: saline with Tween-80
# [13] = dose: 100.0 mg/kg/injection, schedule: Q01DX009 (ip), vehicle: saline with Tween-80
# [14] = dose: 200.0 mg/kg/injection, schedule: Q01DX009 (ip), vehicle: saline with Tween-80
# [15] = dose: 50.0 mg/kg/injection, schedule: Q01DX005 (ip), vehicle: Klucel (hydroxypropylcellulose) (HPC)
# [16] = dose: 100.0 mg/kg/injection, schedule: Q01DX005 (ip), vehicle: Klucel (hydroxypropylcellulose) (HPC)
smiles,measurement,setting,value
O=C1CC2CC(=O)C(S(=O)c3ccccc3)C2C1 (configuration not stated),T/C,[1],96 % of control
same,T/C,[2],99 % of control
c1ccc2c(c1)oc1cc3c(cc12)ncc1cccn13,T/C,"dose: 1.56 mg/kg/injection, schedule: Q01DX005 (ip), vehicle: saline with Tween-80",103 % of control
same,T/C,"dose: 3.12 mg/kg/injection, schedule: Q01DX005 (ip), vehicle: saline with Tween-80",100 % of control
same,T/C,"dose: 6.25 mg/kg/injection, schedule: Q01DX005 (ip), vehicle: saline with Tween-80",97 % of control
same,T/C,"dose: 12.5 mg/kg/injection, schedule: Q01DX005 (ip), vehicle: saline with Tween-80",90 % of control
COc1ccc2cc3n(c(=O)c2c1O)CCc1cc2c(cc1-3)OCO2,T/C,"dose: 0.63 mg/kg/injection, schedule: Q01DX009 (ip), vehicle: distilled water + Tween-80",101 % of control
same,T/C,"dose: 1.25 mg/kg/injection, schedule: Q01DX009 (ip), vehicle: distilled water + Tween-80",101 % of control
same,T/C,"dose: 2.5 mg/kg/injection, schedule: Q01DX009 (ip), vehicle: distilled water + Tween-80",93 % of control
same,T/C,"dose: 5.0 mg/kg/injection, schedule: Q01DX009 (ip), vehicle: distilled water + Tween-80",108 % of control
same,T/C,"dose: 10.0 mg/kg/injection, schedule: Q01DX009 (ip), vehicle: distilled water + Tween-80",101 % of control
same,T/C,"dose: 20.0 mg/kg/injection, schedule: Q01DX009 (ip), vehicle: distilled water + Tween-80",92 % of control
CC(=O)NCCCCCCCNC(C)=O,T/C,"dose: 60.0 mg/kg/injection, schedule: Q01DX005 (ip), vehicle: saline",104 % of control
same,T/C,"dose: 120.0 mg/kg/injection, schedule: Q01DX005 (ip), vehicle: saline",107 % of control
same,T/C,"dose: 240.0 mg/kg/injection, schedule: Q01DX005 (ip), vehicle: saline",96 % of control
CCNC(=S)N/N=C/c1nccc(-c2ccccc2)c1C,T/C,"dose: 25.0 mg/kg/injection, schedule: Q01DX009 (ip), vehicle: saline",117 % of control and 94 % of control
same,T/C,[3],100 % of control and 103 % of control (2×)
same,T/C,[4],99 % of control and 108 % of control
same,T/C,[5],100 % of control
CC[CH2][Pb]([CH2]CC)([CH2]CC)[O]C(=O)C1CCCCC1,T/C,"dose: 1.25 mg/kg/injection, schedule: Q01DX009 (ip), vehicle: saline with Tween-80",105 % of control and 97 % of control
same,T/C,"dose: 2.5 mg/kg/injection, schedule: Q01DX009 (ip), vehicle: saline with Tween-80",111 % of control and 122 % of control
same,T/C,"dose: 5.0 mg/kg/injection, schedule: Q01DX009 (ip), vehicle: saline with Tween-80",122 % of control
same,T/C,"dose: 10.0 mg/kg/injection, schedule: Q01DX009 (ip), vehicle: saline with Tween-80",114 % of control
COc1ccc(OC)c(NC(=O)Nc2ncccn2)c1,T/C,[6],106 % of control
same,T/C,[7],100 % of control
same,T/C,[8],103 % of control
O=C(N/N=C/c1ccc(Cl)cc1)c1cc2ccccc2oc1=O,T/C,"dose: 100.0 mg/kg/injection, schedule: Q01DX001 (ip), vehicle: saline",100 % of control
same,T/C,"dose: 200.0 mg/kg/injection, schedule: Q01DX001 (ip), vehicle: saline",103 % of control
same,T/C,"dose: 400.0 mg/kg/injection, schedule: Q01DX001 (ip), vehicle: saline",105 % of control
Clc1ccc(C(CCc2ccc(Br)cc2)Cn2ccnc2)c(Cl)c1 (configuration not stated),T/C,"dose: 25.0 mg/kg/injection, schedule: Q01DX009 (ip), vehicle: saline with Tween-80",88 % of control
same,T/C,[9],87 % of control
Cc1nn(C(=S)S)c(C)c1N=Nc1cc(Cl)ccc1Cl,T/C,[10],100 % of control
same,T/C,[11],95 % of control
same,T/C,[12],95 % of control
CNP1(NC)=NP(NC)(NC)=NP(NC)(NC)=NP(NC)(NC)=N1,T/C,"dose: 50.0 mg/kg/injection, schedule: Q01DX005 (ip), vehicle: saline",115 % of control
same,T/C,"dose: 100.0 mg/kg/injection, schedule: Q01DX005 (ip), vehicle: saline",110 % of control
same,T/C,"dose: 200.0 mg/kg/injection, schedule: Q01DX005 (ip), vehicle: saline",104 % of control
CCN(CC#N)c1ccc(C=Nc2ccc(OC)cc2OC)cc1,T/C,[9],91 % of control
same,T/C,[13],93 % of control
same,T/C,[14],97 % of control
OCC1CC=CCC1CO (configuration not stated),T/C,[9],96 % of control
same,T/C,[13],101 % of control
same,T/C,[14],100 % of control
C1CN1c1nnc(N2CC2)nn1,T/C,"dose: 7.5 mg/kg/injection, schedule: Q01DX005 (ip), vehicle: saline",178 % of control
same,T/C,"dose: 30.0 mg/kg/injection, schedule: Q01DX005 (ip), vehicle: saline",260 % of control
CC(C)n1ncc2c(N)ncnc21,T/C,"dose: 3.75 mg/kg/injection, schedule: Q01DX009 (ip), vehicle: saline",100 % of control
same,T/C,"dose: 7.5 mg/kg/injection, schedule: Q01DX009 (ip), vehicle: saline",95 % of control
same,T/C,"dose: 15.0 mg/kg/injection, schedule: Q01DX009 (ip), vehicle: saline",104 % of control and 95 % of control
CN(C)c1ccc(/C=C(\NC(=O)c2ccccc2)c2nc3ccccc3s2)cc1,T/C,[1],105 % of control
same,T/C,[2],116 % of control
same,T/C,[12],106 % of control
Cc1ccc(S(=O)(=O)SSC(=S)Sc2ccccc2)cc1,T/C,[6],116 % of control
same,T/C,[7],107 % of control
same,T/C,[8],109 % of control
N#CC1CCCC(C#N)N1CN1C(C#N)CCCC1C#N (configuration not stated),T/C,[15],97 % of control
same,T/C,[16],88 % of control
O=C1C=C(Br)C(=O)c2c1[nH]c(=O)[nH]c2=O,T/C,"dose: 8.0 mg/kg/injection, schedule: Q01DX005 (ip), vehicle: DMSO",117 % of control
same,T/C,"dose: 16.0 mg/kg/injection, schedule: Q01DX005 (ip), vehicle: DMSO",107 % of control
same,T/C,"dose: 32.0 mg/kg/injection, schedule: Q01DX005 (ip), vehicle: DMSO",95 % of control
same,T/C,"dose: 64.0 mg/kg/injection, schedule: Q01DX005 (ip), vehicle: DMSO",107 % of control
N#CCS(=O)(=O)c1cccc[n+]1[O-],T/C,[10],107 % of control and 115 % of control
same,T/C,[11],118 % of control and 122 % of control
same,T/C,[12],123 % of control
S=C1N(c2ccc(Br)cc2)C2=Nc3ccccc3SC(=C2N=Nc2ccc(Br)cc2)N1c1ccc(Cl)cc1,T/C,[10],93 % of control
same,T/C,[11],86 % of control
same,T/C,[12],91 % of control
Cc1nc(N)c2nonc2n1,T/C,"dose: 25.0 mg/kg/injection, schedule: Q04DX003 (ip), vehicle: suspension in saline",98 % of control
same,T/C,"dose: 50.0 mg/kg/injection, schedule: Q04DX003 (ip), vehicle: suspension in saline",103 % of control
same,T/C,"dose: 100.0 mg/kg/injection, schedule: Q04DX003 (ip), vehicle: suspension in saline",94 % of control
same,T/C,"dose: 200.0 mg/kg/injection, schedule: Q04DX003 (ip), vehicle: suspension in saline",95 % of control
OC(c1ccncc1)c1cc(Cl)ccc1Cl (configuration not stated),T/C,[9],94 % of control
same,T/C,[13],100 % of control
same,T/C,[14],108 % of control
CCCCC(NC(=O)C(CCCC)NC(=O)OCc1ccccc1)C(=O)O (configuration not stated),T/C,[15],108 % of control
same,T/C,[16],93 % of control
same,T/C,"dose: 200.0 mg/kg/injection, schedule: Q01DX005 (ip), vehicle: Klucel (hydroxypropylcellulose) (HPC)",95 % of control
CN1CCC1=O,T/C,[3],105 % of control
same,T/C,[4],110 % of control
same,T/C,[5],97 % of control
S=c1nc[nH]c2c1ncn2C1C=CC=CC=C1,T/C,[10],110 % of control
same,T/C,[11],106 % of control
CCOc1cccc(/C=N/n2c(-c3ccccc3)nc3ccccc3c2=O)c1O,T/C,[9],99 % of control
same,T/C,[13],96 % of control
same,T/C,[14],105 % of control
C=Cc1ccccc1-c1ccccc1C(=O)OC,T/C,"dose: 25.0 mg/kg/injection, schedule: Q04DX003 (ip), vehicle: saline with Tween-80",100 % of control
same,T/C,"dose: 50.0 mg/kg/injection, schedule: Q04DX003 (ip), vehicle: saline with Tween-80",101 % of control
same,T/C,"dose: 100.0 mg/kg/injection, schedule: Q04DX003 (ip), vehicle: saline with Tween-80",99 % of control
NC(=O)CCNC(=O)CCCNC(=O)CCNC(=O)OCc1ccccc1,T/C,"dose: 12.5 mg/kg/injection, schedule: Q01DX009 (ip), vehicle: distilled water + Tween-80",96 % of control
same,T/C,"dose: 25.0 mg/kg/injection, schedule: Q01DX009 (ip), vehicle: distilled water + Tween-80",110 % of control
same,T/C,"dose: 50.0 mg/kg/injection, schedule: Q01DX009 (ip), vehicle: distilled water + Tween-80",97 % of control
same,T/C,"dose: 100.0 mg/kg/injection, schedule: Q01DX009 (ip), vehicle: distilled water + Tween-80",105 % of control
same,T/C,"dose: 200.0 mg/kg/injection, schedule: Q01DX009 (ip), vehicle: distilled water + Tween-80",96 % of control
